From PMC11516055, “From Static to Dynamic Structures: Improving Binding Affinity Prediction with Graph‐Based Deep Learning” (Advanced Science, 2024)

Biological target: HSP90
Test: not given
Set-up: method as in CASF-2016
Conditions: HSP90 ligand in CASF-2016, reference structure for docking; ref CASF-2016; cited from earlier work

Row | SMILES | pKi
1 | CCN(CC)C(=O)c1ccc(O)c(OC)c1 [2XDL] | 3.10

Biological target: T1, HSP90 (9-236) (Homo sapiens, UniProt P07900)
T1 construct: HSP90 (9‐236) was cross‐linked on the surface of the Series S Sensor Chip CM5
Test: Surface plasmon resonance (SPR) measurement of Ki on immobilised HSP90 (9-236)
Assay type: binding
Conditions: Biacore S200, HSP90 (9-236) on CM5 chip, 1 × PBS with 5% DMSO
Text: Next, we performed docking on HSP90 against the ChemBridge DIVERSet‐EXP library, which contains 50,000 small molecules that cover a diverse pharmacophore space. The docked conformers were obtained using Autodock Vina, a widely used open‐source docking software.^[ [16], [60] ^] The reference protein‐ligand structure (PDB ID: 2xdl) was chosen from the test set, CASF‐2016, to identify the binding pocket. Then, the docked poses were used to score and rank the molecules based on the Dynaformer predictions. After that, the top‐ranked compounds were filtered and visually inspected for prioritization, following the approach and criteria described in the literature^[ [7], [61] ^] (see Experimental Section for details). To ensure the fairness of prioritization, we created a pool consisting of molecules among the top 10% from both Dynaformer and the original scoring function in Autodock Vina. From the pool, 20 molecules were chosen without knowing their rankings. Finally, surface plasmon resonance (SPR) experiments were conducted for each of the 20 molecules to measure the inhibition constant K i . In total, 12 of the 20 molecules had measurable binding affinities.
Finally, the binding affinities of the above 20 molecules were experimentally validated. Surface plasmon resonance (SPR) measurements were performed by the Biacore S200 instrument (GE Healthcare Life Sciences). HSP90 (9‐236) was cross‐linked on the surface of the Series S Sensor Chip CM5 (GE Healthcare) at pH 4.0 by an amine coupling kit with 1‐ethyl‐(3‐dimethylaminopropyl)‐carbodiimide hydrochloride (EDC) and NHS. Experiments were performed in a running buffer (1 × PBS with 5% DMSO). Each compound was serially diluted by a factor of two in the running buffer. The compound solution flowed through the surface of the chip at a flow rate of […]. Sensorgrams were analyzed and generated by Biacore Evaluation Software.

Row | Ki [µM] | SMILES
2 | 98 | CCCC(=O)N1CCN(c2ccc(NC(=O)c3cccc(C)c3OC)cc2)CC1 [compound 11]
3 | 0.517 | COc1cccc(C(=O)Nc2ccc(Oc3ccccc3)cc2)c1OC [compound 2]
4 | 6.9 | Cc1cccc(C(=O)Nc2ccc3c(c2)OCCO3)c1[N+](=O)[O-] [compound 7]
5 | 4.5 | O=C(Nc1ccccc1)C1CC(=O)N(c2ccc3c4c(cccc24)CC3)C1 (stereo not shown) [compound 6]
6 | 2.5 | Cc1ccc(Cn2c(C)c(C)n3c4c(=O)[nH]c(=O)n(C)c4nc23)cc1 [compound 4]
7 | 10 | O=c1[nH]c(=O)c2c(-c3cccc4ccccc34)ccnc2[nH]1 [compound 8]
8 | 0.207 | CC1=NNc2nc3c(c(=O)n(Cc4c(F)cccc4Cl)c(=O)n3C)n2C1 [compound 1]
9 | 68.6 | Cc1ccc(-c2nc3nc4ccccc4nc3n2CC2CCCO2)cc1 (stereo not shown) [compound 9]
10 | 70 | Cc1nn(-c2nc3ccccc3[nH]2)c2c1C(=O)CC(c1ccccc1O)C2 (stereo not shown) [compound 10]
11 | 3.97 | Nc1c(C(=O)c2ccccc2)sc2nc3c(cc12)CCCC3 [compound 5]

Biological target: T315I Abl kinase domain
Test: not given
Set-up: method as in PMID 17804707
Conditions: experimental value, PDB ID 2v7a, CASF-2016; cited from earlier work

Row | SMILES | pKi
12 | CO[C@@H](C(=O)N1Cc2[nH]nc(NC(=O)c3ccc(N4CCN(C)CC4)cc3)c2C1)c1ccccc1 [2v7a] | 8.3

Biological target: aspartyl protease β-secretase (BACE)
Test: not given
Set-up: method as in PMID 22468999
Conditions: experimental value, PDB ID 3udh; cited from earlier work

Row | SMILES | pKi
13 | O=C1Nc2ccccc2[C@]12CCNC2 [3udh] | 2.8
